Source: ChEMBL document CHEMBL4049458, “Structure-Based Optimization of Thiophene[3,2-d]pyrimidine Derivatives as Potent HIV-1 Non-nucleoside Reverse Transcriptase Inhibitors with Improved Potency against Resistance-Associated Variants” (J Med Chem, 2017)

Key:
[1] = test system: Human immunodeficiency virus 1; test: Antiviral activity against wild type HIV1 3B harboring reverse transcriptase infected in human MT4 cells assessed as protection against virus induced cytotoxicity after 5 days by MTT assay; type: functional, cell-based; conditions: Human immunodeficiency virus 1, 3B, MT4, 120 h
[2] = test system: Human immunodeficiency virus 2; test: Antiviral activity against HIV2 ROD harboring reverse transcriptase infected in human MT4 cells assessed as protection against virus induced cytotoxicity after 5 days by MTT assay; type: functional, cell-based; conditions: Human immunodeficiency virus 2, ISOLATE ROD, MT4, 120 h
[3] = Cytotoxicity against human MT4 cells assessed as cell viability after 5 days by MTT assay; type: cell-based
[4] = Selectivity index, ratio of CC50 for human MT4 cells to EC50 for wild type HIV1 3B harboring reverse transcriptase infected in human MT4 cells; conditions: MT4 cells
[5] = Selectivity index, ratio of CC50 for human MT4 cells to EC50 for reverse transcriptase L100I mutant in human MT4 cells infected HIV1 3B; conditions: MT4 cells
[6] = Selectivity index, ratio of CC50 for human MT4 cells to EC50 for reverse transcriptase K103N mutant in human MT4 cells infected HIV1 3B; conditions: MT4 cells
[7] = Selectivity index, ratio of CC50 for human MT4 cells to EC50 for reverse transcriptase Y181C mutant in human MT4 cells infected HIV1 3B; conditions: MT4 cells
[8] = Selectivity index, ratio of CC50 for human MT4 cells to EC50 for reverse transcriptase Y188L mutant in human MT4 cells infected HIV1 3B; conditions: MT4 cells
[9] = Selectivity index, ratio of CC50 for human MT4 cells to EC50 for reverse transcriptase E138K mutant in human MT4 cells infected HIV1 3B; conditions: MT4 cells
[10] = Selectivity index, ratio of CC50 for human MT4 cells to EC50 for reverse transcriptase F227L/V106A double mutant in human MT4 cells infected HIV1 3B; conditions: MT4 cells
[11] = Selectivity index, ratio of CC50 for human MT4 cells to EC50 for HIV1 RES056 reverse transcriptase K103N/Y181C double mutant infected in human MT4 cells; conditions: MT4 cells

For `Cc1cc(/C=C/C#N)cc(C)c1Oc1nc(NC2CCN(Cc3ccc([N+](=O)[O-])cc3)CC2)nc2ccsc12`, the EC50 [1] was 7.73 nM, the EC50 [2] was greater than 3520 nM and the CC50 at 120 h [3] was 3520 nM. For the same molecule, the selectivity ratio [4] was 456, the selectivity ratio [5] was 134 and the selectivity ratio [6] was 365. For the same molecule, the selectivity ratio [7] was 115, the selectivity ratio [8] was 30 and the selectivity ratio [9] was 86. It also gave a selectivity ratio [10] of 33 and a selectivity ratio [11] of 32.
For `Cc1cc(/C=C/C#N)cc(C)c1Oc1nc(NC2CCN(Cc3ccccn3)CC2)nc2ccsc12`, the EC50 [1] was 3.36 nM, the EC50 [2] was greater than 3850 nM and the CC50 at 120 h [3] was 3850 nM. For the same molecule, the selectivity ratio [4] was 1150, the selectivity ratio [5] was 210 and the selectivity ratio [6] was 724. The selectivity ratio [7] was 418, the selectivity ratio [8] was 92 and the selectivity ratio [9] was 517. It also gave a selectivity ratio [10] of 144 and a selectivity ratio [11] of 32.
Work on `CCOC(=O)c1ccc(CN2CCC(Nc3nc(Oc4c(C)cc(/C=C/C#N)cc4C)c4sccc4n3)CC2)cc1` yielded an EC50 [1] of 14.6 nM, an EC50 [2] greater than 3610 nM and a CC50 at 120 h [3] of no less than 3610 nM. It also gave a selectivity ratio [4] of no less than 247, a selectivity ratio [5] of no less than 134 and a selectivity ratio [6] of no less than 273. For the same molecule, the selectivity ratio [7] was no less than 110, the selectivity ratio [8] was no less than 22 and the selectivity ratio [9] was no less than 96. For the same molecule, the selectivity ratio [10] was no less than 42 and the selectivity ratio [11] was no less than 22.
`Cc1cc(C#N)cc(C)c1Oc1nc(NC2CCC(NCc3cccc(C(F)(F)F)c3)CC2)nc2ccsc12` (stereo not given) showed an EC50 [1] of 174 nM, an EC50 [2] greater than 707 nM and a CC50 at 120 h [3] of 707 nM. It also gave a selectivity ratio [4] of 4, a selectivity ratio [5] of less than 1 and a selectivity ratio [6] of less than 1. It also gave a selectivity ratio [7] of less than 1, a selectivity ratio [8] of less than 1 and a selectivity ratio [9] of less than 1. The selectivity ratio [10] was less than 1 and the selectivity ratio [11] was less than 1.
For `Cc1cc(C#N)cc(C)c1Oc1nc(NC2CCC(NCc3ccc(C#N)cc3)CC2)nc2ccsc12` (stereo not given), the EC50 [1] was 3810 nM, the EC50 [2] was greater than 5150 nM and the CC50 at 120 h [3] was 5150 nM. The selectivity ratio [4] was 1.3, the selectivity ratio [5] was less than 1 and the selectivity ratio [6] was less than 1. The selectivity ratio [7] was less than 1, the selectivity ratio [8] was no more than 1 and the selectivity ratio [9] was less than 1. It also gave a selectivity ratio [10] of less than 1 and a selectivity ratio [11] of less than 1.
With `Cc1cc(C#N)cc(C)c1Oc1nc(NC2CCC(NCc3ccc(Br)cc3)CC2)nc2ccsc12` (stereo not given) the EC50 [1] was 339 nM, the EC50 [2] was greater than 3450 nM and the CC50 at 120 h [3] was 3450 nM. The selectivity ratio [4] was 10, the selectivity ratio [5] was no more than 2 and the selectivity ratio [6] was no more than 5. The selectivity ratio [7] was less than 1, the selectivity ratio [8] was less than 1 and the selectivity ratio [9] was 4. It also gave a selectivity ratio [10] of less than 1 and a selectivity ratio [11] of less than 1.
Molecule `Cc1cc(/C=C/C#N)cc(C)c1Oc1nc(NC2CCN(Cc3cccc(Br)c3)CC2)nc2ccsc12` has an EC50 [1] of 25.8 nM, an EC50 [2] greater than 7950 nM and a CC50 at 120 h [3] of 7950 nM. The selectivity ratio [4] was 308, the selectivity ratio [5] was 279 and the selectivity ratio [6] was 269. It also gave a selectivity ratio [7] of 62, a selectivity ratio [8] of 48 and a selectivity ratio [9] of 61. The selectivity ratio [10] was 85 and the selectivity ratio [11] was 37.
For `Cc1ccc(CN2CCC(Nc3nc(Oc4c(C)cc(/C=C/C#N)cc4C)c4sccc4n3)CC2)cc1`, the EC50 [1] was 8.91 nM, the EC50 [2] was greater than 2910 nM and the CC50 at 120 h [3] was 2910 nM. It also gave a selectivity ratio [4] of 326, a selectivity ratio [5] of 91 and a selectivity ratio [6] of 258. It also gave a selectivity ratio [7] of 98, a selectivity ratio [8] of 21 and a selectivity ratio [9] of 90. It also gave a selectivity ratio [10] of 22 and a selectivity ratio [11] of 20.
For `Cc1cc(/C=C/C#N)cc(C)c1Oc1nc(NC2CCN(Cc3ccncc3)CC2)nc2ccsc12`, the EC50 [1] was 3.34 nM, the EC50 [2] was greater than 4780 nM and the CC50 at 120 h [3] was 4780 nM. For the same molecule, the selectivity ratio [4] was 1430, the selectivity ratio [5] was 752 and the selectivity ratio [6] was 859. For the same molecule, the selectivity ratio [7] was 825, the selectivity ratio [8] was 148 and the selectivity ratio [9] was 560. For the same molecule, the selectivity ratio [10] was 322 and the selectivity ratio [11] was 162.
With `Cc1cc(/C=C/C#N)cc(C)c1Oc1nc(NC2CCN(Cc3ccccc3F)CC2)nc2ccsc12` the EC50 [1] was 6.34 nM, the EC50 [2] was greater than 2480 nM and the CC50 at 120 h [3] was 2480 nM. It also gave a selectivity ratio [4] of 392, a selectivity ratio [5] of 32 and a selectivity ratio [6] of 361. It also gave a selectivity ratio [7] of 83, a selectivity ratio [8] of 18 and a selectivity ratio [9] of 74. The selectivity ratio [10] was 61 and the selectivity ratio [11] was 14.
